Measured values: ChEMBL document CHEMBL1909294, “Translating clinical findings into knowledge in drug safety evaluation--drug induced liver injury prediction system (DILIps)” (PLoS Comput Biol, 2011)

Legend:
Hepatotoxicity [1] = test system: Hepatotoxicity;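 on HepSE bilirubinemia: bilirubinemia hepatic side effect score drawn from the DILIps training data, a prediction system for drug-induced liver injury; call rule not given here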;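 on HepSE cholecystitis: Cholecystitis-related hepatic side effect score drawn from the DILIps (drug-induced liver injury prediction) training data set; call rule not given here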;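 on HepSE cholelithiasis: hepatic side effect score for cholelithiasis, drawn from the DILIps training data for predicting drug-induced liver injury; call rule not given here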;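 on HepSE cirrhosis: cirrhosis hepatic side effect score taken from the DILIps (drug-induced liver injury prediction) training set; call rule not given here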;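 on HepSE elevated liver function tests: hepatic side effect score for raised liver function tests, as recorded in the DILIps training set used for predicting drug-induced liver injury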; on HepSE hepatic failure: call rule not given here;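 on HepSE hepatomegaly: hepatic side effect score for hepatomegaly, taken from the training set of the DILIps drug-induced liver injury prediction system; call rule not given here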
Hepatotoxicity [2] = test system: Hepatotoxicity; remark: listed apart in the source;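 on HepSE bilirubinemia: bilirubinemia hepatic side effect score drawn from the DILIps training data, a prediction system for drug-induced liver injury; call rule not given here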;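 on HepSE cholecystitis: Cholecystitis-related hepatic side effect score drawn from the DILIps (drug-induced liver injury prediction) training data set; call rule not given here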;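 on HepSE cholelithiasis: hepatic side effect score for cholelithiasis, drawn from the DILIps training data for predicting drug-induced liver injury; call rule not given here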;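 on HepSE cirrhosis: cirrhosis hepatic side effect score taken from the DILIps (drug-induced liver injury prediction) training set; call rule not given here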;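 on HepSE elevated liver function tests: hepatic side effect score for raised liver function tests, as recorded in the DILIps training set used for predicting drug-induced liver injury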; on HepSE hepatic failure: call rule not given here;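 on HepSE hepatomegaly: hepatic side effect score for hepatomegaly, taken from the training set of the DILIps drug-induced liver injury prediction system; call rule not given here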
Hepatotoxicity [3] = test system: Hepatotoxicity; remark: listed apart in the source;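 on HepSE bilirubinemia: bilirubinemia hepatic side effect score drawn from the DILIps training data, a prediction system for drug-induced liver injury; call rule not given here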;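 on HepSE cholecystitis: Cholecystitis-related hepatic side effect score drawn from the DILIps (drug-induced liver injury prediction) training data set; call rule not given here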;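 on HepSE cholelithiasis: hepatic side effect score for cholelithiasis, drawn from the DILIps training data for predicting drug-induced liver injury; call rule not given here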;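 on HepSE cirrhosis: cirrhosis hepatic side effect score taken from the DILIps (drug-induced liver injury prediction) training set; call rule not given here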;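 on HepSE elevated liver function tests: hepatic side effect score for raised liver function tests, as recorded in the DILIps training set used for predicting drug-induced liver injury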; on HepSE hepatic failure: call rule not given here
Hepatotoxicity [4] = test system: Hepatotoxicity; remark: listed apart in the source;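 on HepSE bilirubinemia: bilirubinemia hepatic side effect score drawn from the DILIps training data, a prediction system for drug-induced liver injury; call rule not given here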;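 on HepSE cholecystitis: Cholecystitis-related hepatic side effect score drawn from the DILIps (drug-induced liver injury prediction) training data set; call rule not given here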;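 on HepSE cholelithiasis: hepatic side effect score for cholelithiasis, drawn from the DILIps training data for predicting drug-induced liver injury; call rule not given here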;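 on HepSE cirrhosis: cirrhosis hepatic side effect score taken from the DILIps (drug-induced liver injury prediction) training set; call rule not given here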;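 on HepSE elevated liver function tests: hepatic side effect score for raised liver function tests, as recorded in the DILIps training set used for predicting drug-induced liver injury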; on HepSE hepatic failure: call rule not given here
Hepatotoxicity [5] = test system: Hepatotoxicity; remark: listed apart in the source; on HepSE hepatic failure: call rule not given here
Hepatotoxicity [6] = test system: Hepatotoxicity; remark: listed apart in the source; on HepSE hepatic failure: call rule not given here
Hepatotoxicity [7] = test system: Hepatotoxicity; remark: listed apart in the source
Hepatotoxicity [8] = test system: Hepatotoxicity; remark: listed apart in the source
Hepatotoxicity [9] = test system: Hepatotoxicity; remark: listed apart in the source
Hepatotoxicity [10] = test system: Hepatotoxicity; remark: listed apart in the source
Hepatotoxicity [11] = test system: Hepatotoxicity; remark: listed apart in the source
Hepatotoxicity [12] = test system: Hepatotoxicity; remark: listed apart in the source
Hepatotoxicity [13] = test system: Hepatotoxicity; remark: listed apart in the source
Hepatotoxicity [14] = test system: Hepatotoxicity; remark: listed apart in the source

SMILES	HepSE_bilirubinemia (Hepatotoxicity [1])	HepSE_cholecystitis (Hepatotoxicity [2])	HepSE_cholelithiasis (Hepatotoxicity [3])	HepSE_cirrhosis (Hepatotoxicity [4])	HepSE_elevated liver function tests (Hepatotoxicity [5])	HepSE_hepatic failure (Hepatotoxicity [6])	HepSE_hepatic necrosis (Hepatotoxicity [7])	HepSE_hepatitis (Hepatotoxicity [8])	HepSE_hepatomegaly (Hepatotoxicity [9])	HepSE_jaundice (Hepatotoxicity [10])	HepSE_liver disease (Hepatotoxicity [11])	HepSE_liver fatty (Hepatotoxicity [12])	HepSE_liver function tests abnormal (Hepatotoxicity [13])	HepSE_Combined Scores (Hepatotoxicity [14])	other results
CC(=O)NC[C@H]1CN(c2ccc(N3CCOCC3)c(F)c2)C(=O)O1 [LINEZOLID]	0	0	0	0	0	0	0	0	0	1	0	0	1	2	–
N[C@@H](Cc1cc(I)c(Oc2ccc(O)c(I)c2)c(I)c1)C(=O)O [LIOTHYRONINE]	0	0	0	0	0	0	0	0	0	0	0	0	0	0	–
NCCCC[C@H](N[C@@H](CCc1ccccc1)C(=O)O)C(=O)N1CCC[C@H]1C(=O)O [LISINOPRIL ANHYDROUS]	0	0	0	0	0	1	0	1	0	1	0	0	0	3	–
[Li] [LITHIUM]	0	0	0	0	0	0	0	0	0	0	0	0	0	0	–
N#Cc1cc(NC(=O)C(=O)O)c(Cl)c(NC(=O)C(=O)O)c1 [LODOXAMIDE]	0	0	0	0	0	0	0	0	0	0	0	0	0	0	–
O=NN(CCCl)C(=O)NC1CCCCC1 [LOMUSTINE]	0	0	0	0	0	0	0	0	0	0	0	0	0	0	–
CN(C)C(=O)C(CCN1CCC(O)(c2ccc(Cl)cc2)CC1)(c1ccccc1)c1ccccc1 [LOPERAMIDE]	0	0	0	0	0	0	0	0	0	0	0	0	0	0	–
N[C@@H](C(=O)N[C@@H]1C(=O)N2C(C(=O)O)=C(Cl)CC[C@H]12)c1ccccc1 [LORACARBEF ANHYDROUS]	0	0	0	0	0	0	0	0	0	1	0	0	0	1	–
O=C1Nc2ccc(Cl)cc2C(c2ccccc2Cl)=NC1O (configuration not stated) [LORAZEPAM]	0	0	0	0	0	0	0	0	0	1	0	0	1	2	–
CCCCc1nc(Cl)c(CO)n1Cc1ccc(-c2ccccc2-c2nn[nH]n2)cc1 [LOSARTAN]	0	0	0	0	0	0	0	1	0	1	0	0	0	2	–
CN1CCN(C2=Nc3ccccc3Oc3ccc(Cl)cc32)CC1 [LOXAPINE]	0	0	0	0	0	0	0	1	0	1	0	0	0	2	–
CC(=O)O.NCc1ccc(S(N)(=O)=O)cc1 [MAFENIDE ACETATE]	0	0	0	0	0	0	0	0	0	0	0	0	0	0	–
CCOC(=O)CC(SP(=S)(OC)OC)C(=O)OCC (configuration not stated) [MALATHION]	0	0	0	0	0	0	0	0	0	0	0	0	0	0	–
OC[C@@H](O)[C@@H](O)[C@H](O)[C@H](O)CO [MANNITOL]	0	0	0	0	0	0	0	0	0	0	0	0	0	0	–
CNCCCC12CCC(c3ccccc31)c1ccccc12 [MAPROTILINE]	–	–	–	–	–	–	–	–	–	–	–	–	–	–	HepSE_bilirubinemia (Hepatotoxicity [1]; Liver): 0; HepSE_cholecystitis (Hepatotoxicity [2]; Liver): 0; HepSE_cholelithiasis (Hepatotoxicity [3]; Liver): 0; HepSE_cirrhosis (Hepatotoxicity [4]; Liver): 0; HepSE_elevated liver function tests (Hepatotoxicity [5]; Liver): 0; HepSE_hepatic failure (Hepatotoxicity [6]; Liver): 0; HepSE_hepatic necrosis (Hepatotoxicity [7]; Liver): 0; HepSE_hepatitis (Hepatotoxicity [8]; Liver): 0; HepSE_hepatomegaly (Hepatotoxicity [9]; Liver): 0; HepSE_jaundice (Hepatotoxicity [10]; Liver): 1; HepSE_liver disease (Hepatotoxicity [11]; Liver): 0; HepSE_liver fatty (Hepatotoxicity [12]; Liver): 0; HepSE_liver function tests abnormal (Hepatotoxicity [13]; Liver): 0; HepSE_Combined Scores (Hepatotoxicity [14]; Liver): 1
COC(=O)Nc1nc2ccc(C(=O)c3ccccc3)cc2[nH]1 [MEBENDAZOLE]	0	0	0	0	0	0	0	1	0	0	0	0	0	1	–
CNC1(C)C2CCC(C2)C1(C)C (configuration not stated) [MECAMYLAMINE]	0	0	0	0	0	0	0	0	0	0	0	0	0	0	–
Cc1cccc(CN2CCN(C(c3ccccc3)c3ccc(Cl)cc3)CC2)c1 (configuration not stated) [MECLIZINE]	0	0	0	0	0	0	0	0	0	0	0	0	0	0	–
